Laboratory results taken from ChEMBL document CHEMBL1201862, “PubChem BioAssay data set” (2004).
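Compound exposure: 48 hours, 5 concentrations, 96-well plates. Here, GI50 denotes the concentration required for 50% inhibition of growth.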 The source made the active and inactive calls. Rule as the data show it: active = GI50 up to about 1.1 µM and inactive = higher.

Key:
Test in all cases: NCI tumour cell line growth inhibition, 48 h
[1] = tested on: OVCAR-8
[2] = tested on: DLD-1
[3] = tested on: HOP-92
[4] = tested on: SK-MEL-2
[5] = tested on: SK-OV-3
[6] = tested on: NCI-H460
[7] = tested on: ACHN
[8] = tested on: OVCAR-5
[9] = tested on: CCRF-CEM
[10] = tested on: M19-MEL
[11] = tested on: NCI-H226
[12] = tested on: RXF 393
[13] = tested on: 786-0
[14] = tested on: KM12
[15] = tested on: TK-10
[16] = tested on: HOP-62
[17] = tested on: MCF7
[18] = tested on: BT-549
[19] = tested on: T47D
[20] = tested on: MDA-N

| Structure (SMILES) | GI50 [1] | GI50 [2] | GI50 [3] | GI50 [4] | GI50 [5] | GI50 [6] | GI50 [7] | GI50 [8] | GI50 [9] | GI50 [10] | GI50 [11] | GI50 [12] | GI50 [13] | GI50 [14] | GI50 [15] | GI50 [16] | GI50 [17] | GI50 [18] | GI50 [19] | GI50 [20] |
| --- | --- | --- | --- | --- | --- | --- | --- | --- | --- | --- | --- | --- | --- | --- | --- | --- | --- | --- | --- | --- |
| Fc1ccccc1C1SCc2nc3ccccc3n21 (configuration not stated) | 49.4 µM (inactive) | 53.7 µM (inactive) | 19.7 µM (inactive) | 76.4 µM (inactive) | 34.8 µM (inactive) | 47.9 µM (inactive) | 38.1 µM (inactive) | 41.5 µM (inactive) | 43.1 µM (inactive) | 51.9 µM (inactive) | 76.7 µM (inactive) | 92 µM (inactive) | > 100 µM (inactive) | 89.9 µM (inactive) | > 100 µM (inactive) |  |  |  |  |  |
| CCN(CC)CCCC(C)Nc1c(Sc2cnc3cc(Cl)ccc3c2NC(C)CCCN(CC)CC)cnc2cc(Cl)ccc12 (configuration not stated) | 1.69 µM (inactive) | 1.91 µM (inactive) | 1.96 µM (inactive) | 1.85 µM (inactive) | 1.66 µM (inactive) | 1.74 µM (inactive) | 1.98 µM (inactive) | 1.73 µM (inactive) | 2.2 µM (inactive) | 1.62 µM (inactive) | 1.76 µM (inactive) | 1.67 µM (inactive) | 1.54 µM (inactive) | 2.07 µM (inactive) | 1.79 µM (inactive) |  |  |  |  |  |
| CC(C)(c1cn(Cc2ccccc2)c2ccccc12)c1cn(Cc2ccccc2)c2ccccc12 | > 100 µM (inactive) | 91.2 µM (inactive) | 32.2 µM (inactive) |  | > 100 µM (inactive) | > 100 µM (inactive) | > 100 µM (inactive) | > 100 µM (inactive) | > 100 µM (inactive) | > 100 µM (inactive) | 51.3 µM (inactive) |  | > 100 µM (inactive) | > 100 µM (inactive) |  | > 100 µM (inactive) |  |  |  |  |
| CSc1c(C)c(C)nn1-c1ccccc1 | > 100 µM (inactive) | > 100 µM (inactive) |  | > 100 µM (inactive) | > 100 µM (inactive) | > 100 µM (inactive) | > 100 µM (inactive) | > 100 µM (inactive) | > 100 µM (inactive) |  |  | > 100 µM (inactive) | > 100 µM (inactive) | > 100 µM (inactive) | > 100 µM (inactive) |  |  |  |  |  |
| CC1CCC2CC(=O)OC([C@@H]3C(=O)O[C@@H](C4=CCCC4)C4C(C)CCC43)C12 (some centres not stated) | 68.5 µM (inactive) | 84.5 µM (inactive) |  | > 100 µM (inactive) | > 100 µM (inactive) | 58.1 µM (inactive) | 61.4 µM (inactive) |  | 34.8 µM (inactive) | > 100 µM (inactive) | > 100 µM (inactive) | > 100 µM (inactive) | > 100 µM (inactive) | 42 µM (inactive) | 54.5 µM (inactive) | > 100 µM (inactive) |  |  |  |  |
| O=c1cc2ccccc2nn1Cc1cccc(Cl)c1 | 73.3 µM (inactive) | > 100 µM (inactive) | > 100 µM (inactive) | > 100 µM (inactive) | > 100 µM (inactive) | > 100 µM (inactive) | > 100 µM (inactive) | > 100 µM (inactive) | 71.1 µM (inactive) | > 100 µM (inactive) | 57.1 µM (inactive) |  | > 100 µM (inactive) | > 100 µM (inactive) | > 100 µM (inactive) | > 100 µM (inactive) |  |  |  |  |
| CC1(C)[C@@H]2CC[C@@]1(C)C1(S[S+]1[O-])C21Cc2ccccc2C1 (some centres not stated) | 17.3 µM (inactive) |  | 23.3 µM (inactive) | 17.2 µM (inactive) | > 100 µM (inactive) | 21.5 µM (inactive) | 20.9 µM (inactive) | 20.6 µM (inactive) | 5.25 µM (inactive) |  | > 100 µM (inactive) | 18.5 µM (inactive) | 16.4 µM (inactive) | 56.1 µM (inactive) | 18.8 µM (inactive) | 81.1 µM (inactive) | 22.1 µM (inactive) | 32.1 µM (inactive) | 21.6 µM (inactive) | 17.1 µM (inactive) |
| COc1ccc(-c2cc(=O)c3ccc(O)cc3o2)c(OC)c1OC |  | 93.1 µM (inactive) | 82.2 µM (inactive) | 27.2 µM (inactive) | 90.6 µM (inactive) |  | 40.9 µM (inactive) | > 10 µM (inactive) | 42.8 µM (inactive) | 74.3 µM (inactive) | > 100 µM (inactive) | 28.9 µM (inactive) | 79.3 µM (inactive) | 71.1 µM (inactive) | 78.3 µM (inactive) | 92.3 µM (inactive) |  |  |  |  |
| O=C(Cc1nc2ccccc2s1)Nc1ccc(Cl)cc1 | > 100 µM (inactive) | 91.6 µM (inactive) |  | 88.9 µM (inactive) | > 100 µM (inactive) | > 100 µM (inactive) | 56.5 µM (inactive) | > 100 µM (inactive) | > 100 µM (inactive) | > 100 µM (inactive) | > 100 µM (inactive) | > 100 µM (inactive) | > 100 µM (inactive) | 78.5 µM (inactive) | > 100 µM (inactive) | > 100 µM (inactive) |  |  |  |  |
| COc1ccc(/C=C/c2cnnc3ccccc23)cc1OC | > 10 µM (inactive) |  | 3.7 µM (inactive) | > 10 µM (inactive) | > 10 µM (inactive) | > 10 µM (inactive) | > 10 µM (inactive) | > 10 µM (inactive) | > 10 µM (inactive) |  | > 10 µM (inactive) | > 10 µM (inactive) | > 10 µM (inactive) | > 10 µM (inactive) | > 10 µM (inactive) | > 10 µM (inactive) | > 10 µM (inactive) | > 10 µM (inactive) | > 10 µM (inactive) | > 10 µM (inactive) |
| Nc1ccc2c(c1)C(=O)c1ccc(F)cc1-2 | > 100 µM (inactive) |  | > 100 µM (inactive) | > 100 µM (inactive) | > 100 µM (inactive) | > 100 µM (inactive) | > 100 µM (inactive) | > 100 µM (inactive) | > 100 µM (inactive) |  | > 100 µM (inactive) | 44.4 µM (inactive) | > 100 µM (inactive) | > 100 µM (inactive) | > 100 µM (inactive) | > 100 µM (inactive) | > 100 µM (inactive) | > 100 µM (inactive) | > 100 µM (inactive) | > 100 µM (inactive) |
| CC(C)(C)OC1=C(OC(C)(C)C)C(O)(c2ccccc2)C1=O (configuration not stated) | > 100 µM (inactive) | > 100 µM (inactive) |  |  | > 100 µM (inactive) | > 100 µM (inactive) | > 100 µM (inactive) | > 100 µM (inactive) | > 100 µM (inactive) | > 100 µM (inactive) |  | > 100 µM (inactive) | > 100 µM (inactive) | > 100 µM (inactive) | > 100 µM (inactive) |  |  |  |  |  |
| Cc1cc(C)c2c(SCc3ccc(Cl)cc3Cl)nc(N)nc2n1 | 28.9 µM (inactive) |  | 15.9 µM (inactive) | 50.1 µM (inactive) | > 100 µM (inactive) | 21.7 µM (inactive) | 57.5 µM (inactive) | > 100 µM (inactive) | > 100 µM (inactive) |  | > 100 µM (inactive) | > 100 µM (inactive) | 17.1 µM (inactive) | > 100 µM (inactive) | 17.6 µM (inactive) | 37.4 µM (inactive) | 31.6 µM (inactive) | > 100 µM (inactive) | 17.2 µM (inactive) | > 100 µM (inactive) |
| O=c1[nH]cc(F)c(=O)[nH]1 [FLUOROURACIL] | 20.2 µM (inactive) |  | 162 µM (inactive) | 372 µM (inactive) | 171 µM (inactive) | 1.05 µM (active) | 9.62 µM (inactive) | 172 µM (inactive) | 35.2 µM (inactive) |  | 250 µM (inactive) | 54.1 µM (inactive) | 11.9 µM (inactive) | 9.51 µM (inactive) | 136 µM (inactive) | 21.8 µM (inactive) | 1.75 µM (inactive) | 110 µM (inactive) | 75.5 µM (inactive) | 8.07 µM (inactive) |
| CCCCCCCCCCCC(=O)C1=C(O)CC(O)CC1=O (configuration not stated) | 74.1 µM (inactive) |  | > 100 µM (inactive) | > 100 µM (inactive) | > 100 µM (inactive) | > 100 µM (inactive) | 99.8 µM (inactive) | 68.7 µM (inactive) | 62.2 µM (inactive) | > 100 µM (inactive) | 68.7 µM (inactive) | > 100 µM (inactive) | > 100 µM (inactive) | 59.4 µM (inactive) | > 100 µM (inactive) | > 100 µM (inactive) |  |  |  |  |
| Nc1ncnc2sc(Nc3ccccc3)nc12 | > 100 µM (inactive) | > 100 µM (inactive) | 77.1 µM (inactive) | > 100 µM (inactive) | 46.2 µM (inactive) | > 100 µM (inactive) | 12.3 µM (inactive) | > 100 µM (inactive) |  | > 100 µM (inactive) | > 100 µM (inactive) |  | 26.5 µM (inactive) | > 100 µM (inactive) | 46.9 µM (inactive) | 81.7 µM (inactive) |  |  |  |  |
| CC(=O)c1c2c(cc3c1CC1(C3)Cc3cc4c(c(C(C)=O)c3C1)CCC4)CCC2 | > 100 µM (inactive) | > 100 µM (inactive) | > 100 µM (inactive) |  |  | > 100 µM (inactive) | > 100 µM (inactive) | > 100 µM (inactive) | > 100 µM (inactive) | > 100 µM (inactive) |  | > 100 µM (inactive) | > 100 µM (inactive) | > 100 µM (inactive) | > 100 µM (inactive) | > 100 µM (inactive) |  |  |  |  |
| O=C(Nc1c(O)[nH]c(=S)[nH]c1=O)c1ccccn1 | > 100 µM (inactive) | > 100 µM (inactive) | 39.1 µM (inactive) | > 100 µM (inactive) | > 100 µM (inactive) | > 100 µM (inactive) | > 100 µM (inactive) | > 100 µM (inactive) | > 100 µM (inactive) | > 100 µM (inactive) | > 100 µM (inactive) |  | > 100 µM (inactive) | > 100 µM (inactive) | > 100 µM (inactive) | > 100 µM (inactive) |  |  |  |  |
